# From patent publication US11673876B2, “Substituted aminobenzyl heteroaryl compounds as EGFR and/or PI3K inhibitors” (Mekanistic Therapeutics LLC, priority 2020, dated 2023)
# Tests used:
# [1] = Pharmacokinetics in mice, single IV or oral administration; format: in vivo, mouse; conditions: for C0 / half-life / Cmax / Tmax: blood; for C0 / half-life / Cmax / Tmax / Cl_obs / F: mouse
# Experimental: (§1) The pharmacokinetics of Compound 2R (HCl salt) and Comparative Compound 2 were studied following a single intravenous and/or oral administration to mice, dogs, and monkeys (n=3 for all species). The IV and PO solution formulations for Comparative Compound 2 contained 20% (w/v) propylene glycol, 75% (w/v) 50 mM trisodium phosphate (pH 12), and 5% (w/v) Kolliphor EL. The formulation for Compound 2R contained 1:2 propylene glycol: 1% Tween 80/Na3PO4 (50 mM). Subsequent pharmacokinetic data analysis was performed using non-compartmental analysis modules in Phoenix/WINNONLIN 6.3 (Pharsight, St. Louis, Mo., USA), and the linear trapezoidal rule was used for AUC calculation. Terminal elimination half-life (t½) was calculated based on data points (≥3) in the terminal phase; Tmax=Time of maximum observed concentration; AUClast/D=Area under the concentration-time curve from time zero to the last observed concentration/divided by dose; Cl_obs=Total body clearance; Cmax=maximum observed concentration; F=bioavailability of oral dose form. Blood samples were assayed for compounds using protein precipitation with acetonitrile followed by HPLC/MS/MS analysis. Blood concentration-time data were analyzed by non-compartmental methods.
# [2] = Pharmacokinetics in monkeys, single IV or oral administration; format: in vivo, monkey; conditions: for C0 / half-life / Cmax / Tmax: blood; for C0 / half-life / Cmax / Tmax / Cl_obs / F: monkey
# Experimental: as §1
# [3] = Pharmacokinetics in dogs, single IV or oral administration; format: in vivo, dog; conditions: for C0 / half-life / Cmax / Tmax: blood; for C0 / half-life / Cmax / Tmax / Cl_obs / F: dog
# Experimental: as §1
# [4] = system: PIK3CA mutant human CAL-33 (squamous head and neck cancer); experiment: CAL-33 xenograft study in NCR nude mice; format: in vivo; conditions: for Median Increase In Survival: time to 1000 mg vs vehicle
# Experimental: (§2) Xenograft Studies. Female NCR nude mice (CrTac:NCr-Foxn1nu from Taconic), 6-7 weeks old, were implanted subcutaneously with 5×10^6 cells in a 1:1 serum-free media/Matrigel® mixture into the region of the right axilla. Mice were randomized into treatment groups and treatments initiated when tumors reached 100 to 200 mg. Compound 2R was administered daily by oral gavage as a fine suspension in 1:2 propylene (glycol in 1% Tween80/Na3PO4 based upon individual animal body weight (0.2 mL/20 g). Subcutaneous tumor volume and body weights were measured two to three times a week. Tumor volumes were calculated by measuring two perpendicular diameters with calipers and using the formula: tumor volume=(length×width2)/2. Individual mice were dosed daily until their tumor burden reached 500 mg for the CAL-27 and HCC-70 models or 1000 mg for the CAL-33 model, to allow for calculation of increase in progression-free survival. Percent increase in survival was calculated by comparing the median time to reach either 500 mg or 1000 mg in the treated group versus the vehicle control group. A complete response (CR) is defined as a tumor below the limits of palpation (<40 mg).
# (§3) FIGS. 1-3 show the performance of Compound 2R in controlling tumor size. […] Tumor growth curves as well as survival and objective response data are summarized in the accompanying FIGS. 1-3 and the table below.
# [5] = system: human HCC-70 (triple negative breast cancer); experiment: HCC-70 xenograft study in NCR nude mice; format: in vivo
# Experimental: as §2, §3
# [6] = Tolerability in the xenograft studies; format: in vivo; conditions: highest dose tested 100 mg/kg, daily dosing over >50 days
# Experimental: as §2, §3
# [7] = system: PI3K gamma mutant human CAL-27 (squamous head and neck cancer); experiment: CAL-27 xenograft study in NCR nude mice; format: in vivo; conditions: CAL-27 model
# Experimental: as §2, §3
# [8] = system: human CAL-27 (squamous head and neck cancer); experiment: CAL-27 xenograft study in NCR nude mice; format: in vivo; conditions: time to 500 mg vs vehicle
# Experimental: as §2, §3
smiles,measurement,setting,value
"CS(=O)(=O)Nc1cc(-c2ccc3ncnc(Nc4ccc(F)c(Cl)c4)c3c2)cnc1Cl [Comparative Compound 2, reference compound]",C0,"[1]; 10 mg/kg, IV, 10 mpk",25600 ng/mL
same,half-life,"[1]; 10 mg/kg, IV, 10 mpk",1.2 h
same,Cmax,"[1]; 10 mg/kg, oral, 10 mpk",8270 ng/mL
same,Tmax,"[1]; 10 mg/kg, oral, 10 mpk",1 h
same,half-life,"[1]; 10 mg/kg, oral, 10 mpk",1.4 h
same,Cl_obs,"[1]; IV, 10 mpk",3.3 mL/min/kg
same,F,"[1]; oral, 10 mpk",63%
same,C0,"[2]; 1 mg/kg, IV, 1 mpk",5910 ng/mL
same,half-life,"[2]; 1 mg/kg, IV, 1 mpk",1.1 h
same,Cmax,"[2]; 10 mg/kg, oral, 10 mpk",110 ng/mL
same,Tmax,"[2]; 10 mg/kg, oral, 10 mpk",1 h
same,half-life,"[2]; 10 mg/kg, oral, 10 mpk",2 h
same,Cl_obs,"[2]; IV, 1 mpk",15.71 mL/min/kg
same,F,"[2]; oral, 10 mpk",3%
same,C0,"[3]; 1 mg/kg, IV, 1 mpk",5490 ng/mL
same,half-life,"[3]; 1 mg/kg, IV, 1 mpk",0.7 h
same,Cmax,"[3]; 5 mg/kg, oral, 5 mpk",716 ng/mL
same,Tmax,"[3]; 5 mg/kg, oral, 5 mpk",2 h
same,half-life,"[3]; 5 mg/kg, oral, 5 mpk",0.8 h
same,Cl_obs,"[3]; IV, 1 mpk",10.50 mL/min/kg
same,F,"[3]; oral, 5 mpk",25%
"C[C@@H](Nc1ncnc2ccc(-c3cnc(Cl)c(NS(C)(=O)=O)c3)cc12)c1ccccc1 [Compound 2R, N-(2-chloro-5-(4-((1R-phenylethyl)amino)quinazolin-6-yl)pyridin-3-yl)methanesulfonamide]",C0,"[1]; 5 mg/kg, IV, 5 mpk",25700 ng/mL
same,half-life,"[1]; 5 mg/kg, IV, 5 mpk",2.5 h
same,Cmax,"[1]; 25 mg/kg, oral, 25 mpk",21700 ng/mL
same,Tmax,"[1]; 25 mg/kg, oral, 25 mpk",4.17 h
same,half-life,"[1]; 25 mg/kg, oral, 25 mpk",4.9 h
same,increase in exposure (AUClast/D) compared to Comparative Compound 2,"[1]; mice, IV",~3 fold
same,enhanced exposure relative to Comparative Compound 2,"[1]; mice, oral",3 fold
same,Cl_obs,"[1]; IV, 5 mpk",1.2 mL/min/kg
same,F,"[1]; oral, 25 mpk",83%
same,C0,"[2]; 1 mg/kg, IV, 1 mpk",4170 ng/mL
same,half-life,"[2]; 1 mg/kg, IV, 1 mpk",2.3 h
same,Cmax,"[2]; 10 mg/kg, oral, 10 mpk",4710 ng/mL
same,Tmax,"[2]; 10 mg/kg, oral, 10 mpk",2 h
same,half-life,"[2]; 10 mg/kg, oral, 10 mpk",4 h
same,Cl_obs,"[2]; IV, 1 mpk",4.81 mL/min/kg
same,F,"[2]; oral, 10 mpk",59%
same,increase in exposure (AUClast/D) compared to Comparative Compound 2,"[2]; monkeys, IV",~3 fold
same,improvement in exposure (AUClast/D) relative to Comparative Compound 2,"[2]; monkeys, oral",> 74 fold
same,Median Increase In Survival,"[4]; CAL-33, 25 mg/kg daily oral gavage",>700%
same,Median Increase In Survival,"[4]; CAL-33, 50 mg/kg daily oral gavage",>700%
same,Median Increase In Survival,"[4]; CAL-33, 100 mg/kg daily oral gavage",>700%
same,single agent activity (tumor growth),[4]; CAL-33 model,Single agent activity of Compound 2R was demonstrated
same,Median Increase In Survival,"[5]; HCC-70, 100 mg/kg daily oral gavage, time to 500 mg vs vehicle",363%
same,single agent activity (tumor growth),[5]; HCC-70 model,Single agent activity of Compound 2R was demonstrated
same,"tolerability (body weight loss, clinical signs)",[6],well tolerated at the highest dose tested (100 mg/kg) with no signs of body weight loss or other clinical signs
same,single agent activity (tumor growth),[7],Single agent activity of Compound 2R was demonstrated
same,Median Increase In Survival,"[8]; CAL-27, 10 mg/kg daily oral gavage",328%
same,Median Increase In Survival,"[8]; CAL-27, 100 mg/kg daily oral gavage",>700%
same,C0,"[3]; 1 mg/kg, IV, 1 mpk",7150 ng/mL
same,half-life,"[3]; 1 mg/kg, IV, 1 mpk",10.4 h
same,Cmax,"[3]; 5 mg/kg, oral, 5 mpk",7090 ng/mL
same,Tmax,"[3]; 5 mg/kg, oral, 5 mpk",2 h
same,half-life,"[3]; 5 mg/kg, oral, 5 mpk",12 h
same,Cl_obs,"[3]; IV, 1 mpk",0.52 mL/min/kg
same,F,"[3]; oral, 5 mpk",48%
same,increase in exposure (AUClast/D) compared to Comparative Compound 2,"[3]; dogs, dosed intravenously",~15 fold
same,improvement in exposure (AUClast/D) relative to Comparative Compound 2,"[3]; dogs, oral",> 28 fold
